Assay results as given in patent US20160095958A1, “BONE REGENERATION USING STROMAL VASCULAR FRACTION, PLATELET-DERIVED GROWTH FACTOR-RICH HYDROGEL, THREE-DIMENSIONAL PRINTED POLY-EPSILON-CAPROLACTONE SCAFFOLDS” (THE JOHNS HOPKINS UNIVERSITY, priority 2013, published 2016).

Tests used:
Type in all cases: cell-based, human
[1] = test system: ASCs; test: Vascular morphogenesis of fibrin-encapsulated ASC spheroids in vascular medium
Procedure: Cells were trypsinized and resuspended at a concentration of 400,000 cells/mL (this concentration varied in the aggregation study where different cluster sizes were being compared) in culture medium containing 0.24% (w/v) methylcellulose (Sigma). The cell suspension was pipetted as 10 μL drops onto inverted Petri dish caps, which were then reverted and placed on dish bottoms containing sterile water to reduce evaporation. Dishes were incubated at 37° C. overnight to allow cellular aggregation at the air-liquid interface. The dish caps were then flooded with PBS to allow bulk collection and transfer of the spheroids to conical tubes.
(§1) Settled spheroid pellets were resuspended in fibrinogen (8 mg/mL final; Sigma), followed by the addition of thrombin (2.5 U/mL final; Sigma) to initiate gelation. Fibrin gels (35 μL) containing 40 spheroids each (in the aggregation study the number of spheroids per gel was varied to keep the total cell number constant) were pipetted into 6-mm diameter wells and incubated at 37° C. for 30 minutes to allow complete gelation prior to the addition of culture medium. Samples were then cultured for two to three weeks, depending on the experiment, with media changed every other day.
(§2) Vascular medium (VM) consisted of: Endothelial Basal Medium-2 (Lonza), 6% FBS, 1% penicillin/streptomycin, 10 ng/mL VEGF165, 1 ng/mL FGF-2, and 1 μg/mL L-ascorbic acid-2-phosphate (Sigma). For monolayer osteogenic differentiation experiments, control medium consisted of low glucose DMEM (GIBCO Invitrogen), 6% FBS, and 1% penicillin/streptomycin; Osteogenic Medium (OM) consisted of control medium plus 10 mM β-glycerophosphate (Sigma) and 50 μM L-ascorbic acid-2-phosphate. For osteogenic differentiation in fibrin gels, OM also included 10 ng/mL VEGF165 and 1 ng/mL FGF-2 to support vascular viability. The composition of FGF-2 and dexamethasone in VM and OM were optimized to support both vascular and osteogenic development (FIG. 2). […] All growth factors were purchased from PeproTech.
(§3) All incubation and washing steps were carried out at 4° C. with gentle agitation. Samples were fixed with 3.7% formaldehyde for 3 hrs, and then washed with PBS three times for 30 min each. Fixed gels were carefully removed from their wells and transferred to microcentrifuge tubes for subsequent staining procedures. Gels were permeabilized and blocked for 4 hrs with 0.2% triton X-100 and 5% normal goat serum (Sigma) in PBS with 0.1% Tween (PTw). Samples were then incubated overnight with primary antibodies diluted in blocking solution, followed by three 1-hr washes in PTw. Primary antibodies included: mouse anti-CD31 (4 μg/mL; Santa Cruz Biotechnology) and either rabbit anti-laminin (7 μg/mL; Sigma), rabbit anti-osteocalcin (10 μg/mL; Santa Cruz Biotechnology), or rabbit anti-NG2 (10 μg/mL; Millipore). Samples were then incubated overnight with DyLight 488-conjugated goat anti-mouse and DyLight 649-conjugated goat anti-rabbit (both 1:400; Jackson ImmunoResearch) diluted in blocking solution, followed by three 1-hr washes in PTw. Lastly, samples were blocked in 5% normal mouse serum for 4 hrs, incubated overnight with Cy3-conjugated mouse anti-αSMA (7 μg/mL; Sigma), and then washed three times for 1 hr each. Gels were mounted in 70% glycerol in chamber slides and imaged using a Zeiss LSM 510 confocal microscope with a 5× objective.
Confocal z-stacks of immunostained gels were z-projected and thresholded for subsequent quantification of vessel network parameters (n=6 images per group). Thresholded images were analyzed with AngioQuant software, Niemisto A., et al., IEEE Trans Med Imaging 24, 549-53, 2005, to quantify total vessel length, area, and interconnectivity. ImageJ software (NIH) was used to quantify pericyte coverage of vessels, which was defined as αSMA+ area within at least 5 μm of the abluminal face of vessel networks. […]

[2] = test system: ASCs; test: Monolayer osteogenic differentiation of ASCs (Alizarin Red S, calcium quantification); conditions: for calcium deposition per cell / total calcium deposition: ASCs in OM for 21 days, PDGF-BB 0, 2, 20 ng/mL or AG1295 0, 1, 10 μM
Procedure: as §2
(§4) For monolayer experiments, ASCs were seeded at 5000 cells/cm^2 and cultured in either control medium or OM for 21 days, with the addition of either PDGF-BB or PDGF receptor inhibitor tyrphostin AG1295 (Santa Cruz Biotechnology). Mineralization was assessed via Alizarin Red S staining and quantification of calcium content. For fibrin gel experiments, samples were cultured in VM for up to 8 days followed by up to 12 days of OM supplemented with VEGF and FGF-2. Mineralization was assessed via quantification of calcium content normalized to DNA content. For Alizarin Red S staining, monolayers were washed twice with PBS, fixed with 3.7% formaldehyde for 20 min, and then washed again three times. Samples were subsequently incubated for 10 min with 40 mM Alizarin Red S (Sigma) and washed extensively prior to imaging. To quantify calcium content in each sample, monolayers or whole fibrin gels were washed twice with PBS and then incubated with 0.5 N HCl overnight at 4° C. with agitation. Calcium content in the sample supernatants was quantified using a colorimetric Calcium LiquiColor Test (Stanbio). DNA content was quantified using a PicoGreen dsDNA quantitation kit (Molecular Probes) as previously described. Hutton D. L., et al., Tissue Eng Part A 18, 1729-40, 2012.
The effects of exogenous PDGF-BB on osteogenic differentiation and vascular morphogenesis of ASCs were studied independently. ASCs were cultured in OM for 21 days with the addition of either PDGF-BB (0 ng/mL, 2 ng/mL, or 20 ng/mL) or PDGF receptor inhibitor AG1295 (0 μM, 1 μM, or 10 μM).

[3] = test system: adipose-derived stem cells (ASCs); test: Osteogenic differentiation of ASCs with transient cytokine exposure; conditions: IL-1β only for the first two days, then cultured without it
Source text: In each case, the cytokine was provided for the first two days of culture and removed for the remaining 19 days. The samples are stained for calcium deposition (red) which is indicative of new bone formation;
Accordingly, cells were provided with IL-1β only for the first two days and cultured in the absence of IL-1β for the remaining three weeks of culture.

[4] = test system: ASCs; test: Vascularized bone co-development: encapsulated ASC spheroids, VM 8 days then OM 12 days
Procedure: as §1
as §2, with “viability.” for “viability. The composition of FGF-2 and dexamethasone in VM and OM were optimized to support both vascular and osteogenic development (FIG. 2).”
as §4, §3

[5] = medium optimization with dexamethasone and FGF-2

In the case of Cc1cc2ncc(-c3ccccc3)nc2cc1C [AG1295, tyrphostin AG1295, reference compound], the pericyte coverage ([1]; VM for 14 days) is reported as “only slightly reduced”, the “calcium deposition per cell” value [2] is reported as “unchanged relative to the OM only group” and the total calcium deposition [2] is reported as “decreased in a dose dependent manner”.
With “FGF-2: fibroblast growth factor-2 (PeproTech)” the “pericyte coverage in vascular cultures” value [1, 5] was “slight increase”, the “vessel network growth / length in vascular cultures” value [1, 5] was “slight increase” and the “vessel width in vascular cultures” value [1, 5] was “increased vessel width”. For the same compound, the “calcium deposition in osteogenic cultures” value ([2]; 1 ng/mL FGF-2, dexamethasone 0 nM to 10 nM) was “significantly greater calcium deposition”.
With IL-1β: pro-inflammatory cytokine the “ASC differentiation into bone-forming cells” value [3] was “dose dependent effect”.
With “PDGF-BB: exogenous platelet-derived growth factor-BB, dimeric glycoprotein of two B chains, purchased from PeproTech” the “increase in total vessel length” value ([1]; 2 ng/mL, VM for 14 days) was 1.4 fold, the vessel width ([1]; 20 ng/mL, VM for 14 days) was “noticeably wider” and the “effect on total vessel length overall” value ([1]; VM for 14 days) was “did not have statistically significant effects”. The “reduction of pericyte coverage” value ([1]; VM for 14 days) was 2.9 fold, the “calcium content versus control group (VM-OM)” value ([4]; 20 ng/mL) was “substantially greater than both” and the “vascular network length versus control group (VM-OM)” value ([4]; 20 ng/mL) was “substantially greater than both”. The “calcium deposition, PDGF-BB greater than BMP-2” value ([4]; 20 ng/mL each) was 4.2 fold, the “calcium per cell, PDGF-BB greater than BMP-2” value ([4]; 20 ng/mL each) was 5.6 fold and the “total vascular network length, PDGF-BB higher than BMP-2” value ([4]; 20 ng/mL each) was 2.3 fold. The “calcium content per cell, greater than without PDGF-BB” value ([4]; 20 ng/mL throughout) was 5.2 fold, the “osteocalcin production (semiquantitative), greater than without PDGF-BB” value ([4]; 20 ng/mL throughout) was 1.4 fold and the “vascular network length, greater than without PDGF-BB” value ([4]; 20 ng/mL throughout) was 2.7 fold. The “αSMA intensity, less than without PDGF-BB” value ([4]; 20 ng/mL throughout) was 2.1 fold, the “calcium deposition per cell” value [2] was “significantly increased in a dose-dependent manner” and the total calcium deposition [2] was “significantly increased in a dose-dependent manner”.
